# Molecular target: APJ receptor (Homo sapiens (Human), UniProt P35414)
# Test: [35S]GTPγS binding assay on membranes from CHO cells stably expressing human APJ receptor
# Type: biochemical
# Conditions: membranes of CHO cells stably expressing human APJ receptor, means of several independent experiments, read-out: Activity hAPJ SPA EC50 IP
# Protocol: The human APJ receptor was cloned by polymerase chain reaction and the gene encoding the receptor was subcloned in pFLAG-CMV™-3 expression vector (Sigma, Saint Louis, Mo. USA) in-house at Amgen. A GTPγS binding assay was performed on membranes prepared from CHO cells stably expressing human APJ receptor. The optimum experimental conditions for the concentrations of GDP, MgCl2, and NaCl in the assay buffer were initially determined. The assay was performed in assay buffer [20 mM HEPES, pH 7.5, 5 mM MgCl2, and 0.1% (w/v) BSA with 200 mM NaCl, 3 μM GDP] and membranes expressing human APJ receptor/well along with WGA PS beads. The reaction was initiated by addition of 0.2 nM [^35S]GTPγS (Perkin Elmer Life and Analytical Sciences, Waltham USA) in the absence or presence of various ligands and incubated at RT for 90 min. Nonspecific binding was determined in the presence of 100 μM GTPγS and was always less than 0.2% of total binding. All the results presented are means of several independent experiments and analyzed by non-linear regression methods using commercially available program Prism (GraphPad, San Diego, Calif.) to obtain EC50 detailed in Table 26.
# APJ receptor, sequence (P35414 whole entry): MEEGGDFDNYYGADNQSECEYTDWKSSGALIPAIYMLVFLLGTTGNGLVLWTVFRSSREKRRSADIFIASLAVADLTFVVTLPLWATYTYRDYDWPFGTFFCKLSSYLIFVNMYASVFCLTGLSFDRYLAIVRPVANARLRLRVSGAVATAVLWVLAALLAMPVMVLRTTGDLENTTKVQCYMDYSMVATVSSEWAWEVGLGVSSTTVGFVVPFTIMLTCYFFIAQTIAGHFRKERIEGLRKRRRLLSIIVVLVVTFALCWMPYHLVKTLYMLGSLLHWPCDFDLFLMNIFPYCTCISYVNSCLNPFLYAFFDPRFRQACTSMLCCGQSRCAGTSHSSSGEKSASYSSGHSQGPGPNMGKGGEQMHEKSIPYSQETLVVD
row,Molecule,EC50 [nM]
1,"(1R,2S)-1-(5-chloro-2-pyrimidinyl)-N-(4-(2,6-dimethoxyphenyl)-5-(5-methyl-2-furanyl)-4H-1,2,4-triazol-3-yl)-1-hydroxy-2-propanesulfonamide or (1S,2R)-1-(5-chloro-2-pyrimidinyl)-N-(4-(2,6-dimethoxyphenyl)-5-(5-methyl-2-furanyl)-4H-1,2,4-triazol-3-yl)-1-hydroxy-2-propanesulfonamide [Example 212.0]",0.074
2,"COc1cccc(OC)c1-n1c(NS(=O)(=O)C[C@@H](C)c2ncc(F)cn2)nnc1-c1ccco1 (mixture of isomers) [Example 129.0, (S)-N-(4-(2,6-dimethoxyphenyl)-5-(furan-2-yl)-4H-1,2,4-triazol-3-yl)-2-(5-fluoropyrimidin-2-yl)propane-1-sulfonamide and (R)-N-(4-(2,6-dimethoxyphenyl)-5-(furan-2-yl)-4H-1,2,4-triazol-3-yl)-2-(5-fluoropyrimidin-2-yl)propane-1-sulfonamide]",3.3
3,"COc1cccc(OC)c1-n1c(NS(=O)(=O)[C@H](C)[C@H](O)c2cscn2)nnc1-c1ccc(C)o1 (single isomer, unassigned) [Example 309.0, (1S,2S)—N-(4-(2,6-Dimethoxyphenyl)-5-(5-methyl-2-furanyl)-4H-1,2,4-triazol-3-yl)-1-hydroxy-1-(1,3-thiazol-4-yl)-2-propanesulfonamide or (1R,2R)—N-(4-(2,6-dimethoxyphenyl)-5-(5-methyl-2-furanyl)-4H-1,2,4-triazol-3-yl)-1-hydroxy-1-(1,3-thiazol-4-yl)-2-propanesulfonamide]",61
4,"COc1cccc(OC)c1-n1c(NS(=O)(=O)[C@@H]2C[C@H](O)CN(c3cnc(Cl)c(C#N)c3)C2)nnc1-c1ccc(C)o1 (mixture of isomers) [Example 322.0, (3S,5R)-1-(6-Chloro-5-cyano-3-pyridinyl)-N-(4-(2,6-dimethoxyphenyl)-5-(5-methyl-2-furanyl)-4H-1,2,4-triazol-3-yl)-5-hydroxy-3-piperidinesulfonamide and (3R,5S)-1-(6-chloro-5-cyano-3-pyridinyl)-N-(4-(2,6-dimethoxyphenyl)-5-(5-methyl-2-furanyl)-4H-1,2,4-triazol-3-yl)-5-hydroxy-3-piperidinesulfonamide]",0.2
5,COc1cccc(OC)c1-n1c(NS(=O)(=O)[C@H](C)[C@H](O)c2cccc(Cl)n2)nnc1-c1ccc(C)o1 (stereo in doubt) [Example 85.0],0.17
6,"COc1cccc(OC)c1-n1c(NS(=O)(=O)CCc2ncc(Cl)cc2N2CCC2=O)nnc1-c1ccco1 [Example 27.0, 2-(5-chloro-3-(2-oxo-1-azetidinyl)-2-pyridinyl)-N-(4-(2,6-dimethoxyphenyl)-5-(2-furanyl)-4H-1,2,4-triazol-3-yl)ethanesulfonamide]",0.46
7,"COc1cccc(OC)c1-n1c(NS(=O)(=O)[C@@H](C)[C@@H](OC)c2ncc(F)cn2)nnc1-c1ccc(C)o1 (single isomer, unassigned) [Example 132.0, (1S,2S)-N-(4-(2,6-dimethoxyphenyl)-5-(5-methylfuran-2-yl)-4H-1,2,4-triazol-3-yl)-1-(5-fluoropyrimidin-2-yl)-1-methoxypropane-2-sulfonamide or (1R,2R)-N-(4-(2,6-dimethoxyphenyl)-5-(5-methylfuran-2-yl)-4H-1,2,4-triazol-3-yl)-1-(5-fluoropyrimidin-2-yl)-1-methoxypropane-2-sulfonamide]",6.8
8,"CCc1ccc(-c2nnc(NS(=O)(=O)CCc3ncc(F)cn3)n2-c2c(OC)cccc2OC)o1 [Example 98.0, N-(4-(2,6-dimethoxyphenyl)-5-(5-ethyl-2-furanyl)-4H-1,2,4-triazol-3-yl)-2-(5-fluoro-2-pyrimidinyl)ethanesulfonamide]",0.45
9,"COc1cccc(OC)c1-n1c(NS(=O)(=O)[C@H](C)[C@H](O)c2ccc(F)cc2CO)nnc1-c1ccc(C)o1 (single isomer, unassigned) [Example 73.0]",0.49
10,"COc1cccc(OC)c1-n1c(NS(=O)(=O)[C@H](C)[C@@H](OC)c2cn3ccccc3n2)nnc1-c1ccc(C)o1 (racemic) [Example 264.0, (1R,2S)—N-(4-(2,6-Dimethoxyphenyl)-5-(5-methyl-2-furanyl)-4H-1,2,4-triazol-3-yl)-1-imidazo[1,2-a]pyridin-2-yl-1-methoxy-2-propanesulfonamide and (1S,2R)—N-(4-(2,6-dimethoxyphenyl)-5-(5-methyl-2-furanyl)-4H-1,2,4-triazol-3-yl)-1-imidazo[1,2-a]pyridin-2-yl-1-methoxy-2-propanesulfonamide]",0.167
11,"COc1cccc(OC)c1-n1c(NS(=O)(=O)C[C@@](C)(O)c2ncc(C#N)cn2)nnc1-c1ccc(C)o1 (single isomer, unassigned) [Example 248.0, (2S)-2-(5-Cyano-2-pyrimidinyl)-N-(4-(2,6-dimethoxyphenyl)-5-(5-methyl-2-furanyl)-4H-1,2,4-triazol-3-yl)-2-hydroxy-1-propanesulfonamide or (2R)-2-(5-cyano-2-pyrimidinyl)-N-(4-(2,6-dimethoxyphenyl)-5-(5-methyl-2-furanyl)-4H-1,2,4-triazol-3-yl)-2-hydroxy-1-propanesulfonamide]",1.6
12,"COc1cccc(OC)c1-n1c(NS(=O)(=O)[C@@H](C)[C@H](C)c2ncc(C)cn2)nnc1-c1ccc(C)o1 [Example 262.0, (2S,3R)-N-(4-(2,6-dimethoxyphenyl)-5-(5-methylfuran-2-yl)-4H-1,2,4-triazol-3-yl)-3-(5-methylpyrimidin-2-yl)butane-2-sulfonamide]",0.07
13,"COc1ccccc1-n1c(NS(=O)(=O)[C@@H](C)Cc2ncc(F)cn2)nnc1-c1ccc(C)o1 (racemic) [Example 295.0, (2S)-1-(5-fluoro-2-pyrimidinyl)-N-(4-(2-methoxyphenyl)-5-(5-methyl-2-furanyl)-4H-1,2,4-triazol-3-yl)-2-propanesulfonamide and (2R)-1-(5-fluoro-2-pyrimidinyl)-N-(4-(2-methoxyphenyl)-5-(5-methyl-2-furanyl)-4H-1,2,4-triazol-3-yl)-2-propanesulfonamide]",6.1
14,"CC[C@H](Cc1ncc(F)cn1)S(=O)(=O)Nc1nnc(-c2ccc(C)o2)n1-c1c(OC)cccc1OC (single isomer, unassigned) [Example 134.0, (R)—N-(4-(2,6-dimethoxyphenyl)-5-(5-methylfuran-2-yl)-4H-1,2,4-triazol-3-yl)-1-(5-fluoropyrimidin-2-yl)butane-2-sulfonamide or (S)—N-(4-(2,6-dimethoxyphenyl)-5-(5-methylfuran-2-yl)-4H-1,2,4-triazol-3-yl)-1-(5-fluoropyrimidin-2-yl)butane-2-sulfonamide]",10
15,"COc1cccc(OC)c1-n1c(NS(=O)(=O)[C@H](C)[C@@H](OC)c2ccc(C#N)cc2C#N)nnc1-c1ccc(C)o1 (single isomer, unassigned) [Example 143.0, (1S,2R)-1-(2,4-Dicyanophenyl)-N-(4-(2,6-dimethoxyphenyl)-5-(5-methyl-2-furanyl)-4H-1,2,4-triazol-3-yl)-1-methoxy-2-propanesulfonamide or (1R,2S)-1-(2,4-dicyanophenyl)-N-(4-(2,6-dimethoxyphenyl)-5-(5-methyl-2-furanyl)-4H-1,2,4-triazol-3-yl)-1-methoxy-2-propanesulfonamide]",0.072
16,"COc1cccc(OC)c1-n1c(NS(=O)(=O)[C@H](C)[C@@H](O)c2ccc(C)cn2)nnc1-c1ccc(C)o1 (single isomer, unassigned) [Example 65.0]",0.31
17,"COCC1(n2c(NS(=O)(=O)[C@@H](C)[C@H](OC)c3ncc(Cl)cn3)nnc2-c2ccc(C)o2)CC1 [Example 385.0, (1R,2S)-1-(5-chloro-2-pyrimidinyl)-1-methoxy-N-(4-(1-(methoxymethyl)cyclopropyl)-5-(5-methyl-2-furanyl)-4H-1,2,4-triazol-3-yl)-2-propanesulfonamide]",0.38
18,"CO[C@H](c1ncc(Cl)cn1)[C@H](C)S(=O)(=O)Nc1nnc(-c2ccc(C)o2)n1C(C)C [Example 388.0, (1R,2S)-1-(5-chloropyrimidin-2-yl)-N-(4-isopropyl-5-(5-methylfuran-2-yl)-4H-1,2,4-triazol-3-yl)-1-methoxypropane-2-sulfonamide]",37
19,"COc1cccc(OC)c1-n1c(NS(=O)(=O)[C@H]2C[C@@H](O)CN(c3nc(C)cc(C)n3)C2)nnc1-c1ccc(C)o1 (single isomer, unassigned) [Example 336.0, (3S,5R)—N-(4-(2,6-Dimethoxyphenyl)-5-(5-methylfuran-2-yl)-4H-1,2,4-triazol-3-yl)-1-(4,6-dimethylpyrimidin-2-yl)-5-hydroxypiperidine-3-sulfonamide or (3R,5S)—N-(4-(2,6-dimethoxyphenyl)-5-(5-methylfuran-2-yl)-4H-1,2,4-triazol-3-yl)-1-(4,6-dimethylpyrimidin-2-yl)-5-hydroxypiperidine-3-sulfonamide]",0.55
20,"COc1cccc(OC)c1-n1c(NS(=O)(=O)CCN2Cc3ccccc3C2=O)nnc1-c1ccco1 [Example 2.0, N-(4-(2,6-Dimethoxyphenyl)-5-(2-furanyl)-4H-1,2,4-triazol-3-yl)-2-(1-oxo-1,3-dihydro-2H-isoindol-2-yl)ethanesulfonamide]",13000

# Reference: patent US10736883B2, “Triazole furan compounds as agonists of the APJ receptor” (AMGEN INC., priority 2016, dated 2020)
